Source: patent US20100227841A1, “Patient populations and treatment methods” (Harbor BioSciencs, Inc., priority 2008, published 2010)

What was measured:
[1] = test system: toll-like receptor 4 (TLR4) signaling; assay: LPS-induced proinflammatory signaling in macrophages (Western blot, qNPA array); format: cell-based, mouse
Experimental: Methods. LPS and recombinant TNFα were obtained from Sigma. Anti-SREBP2 was obtained from Abcam (Cambridge, Mass.). Other primary antibodies were purchased from Cell Signaling Technology (Danvers, Mass.) unless otherwise indicated. Murine primary macrophages were elicited by intraperitoneal injection of thioglycollate (3 mL/mouse) in C57BL/6J mice. Macrophages were obtained from intraperitoneal lavage and washed twice. Cells were cultured in RPMI supplemented with 10% fetal bovine serum (FBS) for 3 days and then starved in RPMI supplemented with 0.5% FBS for overnight before the treatment. RAW 264.7 cells and 3T3-L1 cells were cultured essentially as described elsewhere (T. Yoshizaki, et al. Molecular and Cellular Biology, 29:1363-1374, 2009).
Gene expression analyses used total RNA extracted from tissue with Purelink total RNA purification system (Invitrogen) following the manufacturer's protocol. Total RNA (2 μg) was reverse-transcribed using iScript cDNA Synthesis Kit (Bio-Rad Laboratories, Hercules, Calif.). Primer sequences used in the PCR reactions were chosen based on the sequences available in GenBank. Primer sequences are available upon request. PCR was carried out using iTaq SYBR Green supermix (Bio-Rad Laboratories, Hercules, Calif.) on an MJ Research Chromo4 Real Time PCR system (Bio-Rad Laboratories BV, Hercules, Calif.). […] For Quantitative Nuclease Protection Assay (qNPA), cells were lysed in lysis buffer after various treatments. The qNPA ArrayPlate assays were performed by High Throughput Genomics, Inc.
For Western blots, cells were serum starved and pretreated with DMSO or 17α-ethynylandrost-5-ene-3β,7β,17β-triol (100 nM) for overnight before LPS (100 ng/ml) or TNFα (10 ng/ml) stimulation for the indicated times, and then were lysed in radioimmunoprecipitation buffer containing protease inhibitor cocktail (Roche) and phosphatase inhibitor cocktail (Sigma). Total cell lysates were separated by 10% SDS-PAGE. The blots were incubated first with blocking buffer (Tris-buffered saline containing 0.05% Tween 20 and 5.5% nonfat milk) followed by primary antibodies in blocking buffer or Tris-buffered saline containing 2% BSA. The bound antibodies were detected by horseradish peroxidase-conjugated secondary antibodies (1:4000, v/v) in blocking buffer and visualized by enhanced chemiluminescence.

[2] = test system: pre-diabetic hyperglycemic patients and patients having type 2 diabetes; assay: Biomarkers in 28-day clinical trial (serum CRP, adipokines; cytokines from LPS stimulated PBMC by ELISA); format: in vivo, human
Experimental: Groups of pre-diabetic hyperglycemic patients and patients having type 2 diabetes were treated for 28 days with the experimental drug 17α-ethynylandrost-5-ene-3β,7β,17β-triol (oral capsules) or with placebo. Dosages for the pre diabetic patients were 0 mg per day (placebo control; n=10), 5 mg once per day (n=9; cohort 1), 5 mg twice per day (n=8; cohort 2) or 10 mg twice per day (n=7; cohort 3). Placebos were obtained with each treatment cohort based on protocol randomization of 2 treated:1 placebo. The pre-diabetic patients were obese (body mass index ≧29 kg/m^2) and glucose intolerant (fasting plasma glucose <126 mg/dL; 2-hr post prandial glucose 140-200 mg/dL after 75 g oral glucose). The diabetic patients were dosed with 10 mg/day for 28 days (n=6; cohort 6). The glucose clamp protocol was performed on groups of patients dosed with 10 mg/day or 20 mg/day of drug at baseline, one day before drug treatment started (day −1), and one day after the last day of dosing with the drug (day 29). Patients with an M value of <5 mg glucose/kg/min (M<5) were considered insulin resistant and patients with an M value of >5 mg glucose/kg/min (M>5) were considered insulin sensitive or essentially normal for whole body glucose metabolism.
Levels of cytokine biomarkers from patients with M values measured by glucose clamp such as MCP1, TNFα, IL-6 and IL-1β were measured by ELISA as the amount of cytokine secreted from LPS stimulated peripheral blood mononuclear cells from the patients at baseline (day −1) and at 1 day after the last day of drug dosing (day 29). Levels of RBP4 and CRP protein were measured from patient serum.
The analysis of responders used standard analysis. Due to the cohort sizes and the ongoing basis of this clinical protocol, data for surrogates that corresponded to significance at p≦0.10 (trend) were considered positive evidence of surrogacy of the biomarker for the M<5 insulin resistant condition.

[3] = pretreatment 100 nM overnight, LPS 100 ng/ml, p<0.05
[4] = cohort 2, 3 and 6 M<5 patients vs M>5 patients, p<0.03

C#C[C@]1(O)CC[C@H]2[C@@H]3[C@@H](O)C=C4C[C@@H](O)CC[C@]4(C)[C@H]3CC[C@@]21C [17α-ethynylandrost-5-ene-3β,7β,17β-triol]
LPS-induced activation of ERK [1, 3]: partially, but significantly, blocked
LPS-induced activation of IKK [1, 3]: partially, but significantly, blocked
LPS-induced activation of JNK [1, 3]: partially, but significantly, blocked
LPS-induced activation of p38 [1, 3]: partially, but significantly, blocked
IκB phosphorylation and degradation ([1]; pretreatment 100 nM, LPS): not influenced
NFκB phosphorylation ([1]; pretreatment 100 nM, LPS): reduced
LPS-induced transcription of Cxcl1 ([1]; qNPA array): significantly reduced
LPS-induced transcription of Cxcl10 ([1]; qNPA array): significantly reduced
LPS-induced transcription of IL-1β ([1]; qNPA array): significantly reduced
LPS-induced transcription of IL-6 ([1]; qNPA array): significantly reduced
LPS-induced transcription of IL-12 ([1]; qNPA array): significantly reduced
LPS-induced transcription of Nos2 ([1]; qNPA array): significantly reduced
LPS-induced transcription of TNFα ([1]; qNPA array): significantly reduced
adiponectin ([2]; M<5 drug treated patients): not affected
Resistin ([2]; M<5 drug treated subjects): increased much less
decrease in CRP ([2]; M<5 patients compared to M>5 patients, p=0.094 exact Mann-Whitney): significant
Leptin ([2]; all drug treated cohorts (decreased in placebo patients)): increased
IL-1β (LPS stimulated PBMC) [2, 4]: highly significant decrease
IL-6 (LPS stimulated PBMC) [2, 4]: highly significant decrease
MCP1 (LPS stimulated PBMC) [2, 4]: highly significant decrease
TNFα (LPS stimulated PBMC) [2, 4]: highly significant decrease
Leptin ([2]; cohort 6 (diabetic patients, 10 mg/day), p=0.002): significantly increased
TNFα (LPS stimulated PBMC) ([2]; day 29, drug treated M<5 vs drug treated M>5 patients, p=0.075): greater decrease
MCP1 (LPS stimulated PBMC) ([2]; day 29, drug treated M<5 vs drug treated M>5 patients, p=0.093): greater decrease
Resistin ([2]; drug treated subjects vs placebo control patients): increased less
CRP ([2]; insulin resistant subjects (M<5) compared to placebo-treated subjects, p=0.018 exact Mann-Whitney): significantly decreased
